Source: patent US11554171B2, “Compounds and methods for the targeted degradation of bromodomain-containing proteins” (Arvinas Operations, Inc., priority 2015, dated 2023)

Tested on: c-myc in 22RV-1 cells
Test: Human c-myc ELISA assay
Format: cell-based
Conditions: Homo sapiens; for Emax: 22Rv1, 18 h, read-out: Degradation of BRD4: Maximum inhibition (%) c-Myc ELISA in 22RV1 cells; for DC50: 22Rv1, read-out: Degradation of BRD4: DC50 (uM) c-Myc ELISA in 22RV1 cells
In short: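 22RV-1 cells treated 18 h with 8-point 1:3 compound dilutions (final top 300 nM or 1 μM, 0.1% DMSO). Cells lysed in RIPA buffer with protease/phosphatase inhibitors, and c-myc protein in cleared lysate quantified by ELISA against a standard curve. DC50 reported for c-myc suppression.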

In the case of `Cc1ncsc1-c1ccc(CNC(=O)[C@@H]2C[C@@H](O)CN2C(=O)[C@@H](NC(=O)COCCCOCCCOc2ccc(C3(NC(=O)C[C@@H]4N=C(c5ccc(Cl)cc5)c5c(sc(C)c5C)-n5c(C)nnc54)CC3)cc2)C(C)(C)C)cc1` [Example 27, (2S,4R)-1-[(2S)-2-[2-(3-{3-[4-(1-{2-[(9S)-7-(4-chlorophenyl)-4,5,13-trimethyl-3-thia-1,8,11,12-tetraazatricyclo[8.3.0.0^2,^6]trideca-2(6),4,7,10,12-pentaen-9-yl]acetamido}cyclopropyl)phenoxy]propoxy}propoxy)acetamido]-3,3-dimethylbutanoyl]-4-hydroxy-N-{[4-(4-methyl-1,3-thiazol-5-yl)phenyl]methyl}pyrrolidine-2-carboxamide], the Emax is reported as 100% and the DC50 is reported as 0.01 to 0.1 µM.

For `Cc1ncsc1-c1ccc(CNC(=O)[C@@H]2C[C@@H](O)CN2C(=O)[C@@H](NC(=O)COCCCCOc2ccc3c(c2)c2c(C(N)=O)cc(-c4c(C)noc4C)cc2n3Cc2ccccc2)C(C)(C)C)cc1` [Example 175], the Emax was 92% and the DC50 was 0.01 to 0.1 µM.

Molecule `Cc1ncsc1-c1ccc(CNC(=O)[C@@H]2C[C@@H](O)CN2C(=O)[C@@H](NC(=O)COCCOCCOCCOCCOc2ccc(NC(=O)C[C@@H]3N=C(c4ccc(Cl)cc4)c4c(sc(C)c4C)-n4c(C)nnc43)cc2)C(C)(C)C)cc1` [Example 12] has an Emax of 100% and a DC50 of 0.01 to 0.1 µM.

`Cc1ncsc1-c1ccc(CNC(=O)[C@@H]2C[C@@H](O)CN2C(=O)[C@@H](NC(=O)COCCCOCCNC(=O)C[C@H]2N=C(c3ccc(Cl)cc3)c3c(sc(C)c3C)-n3c(C)nnc32)C(C)(C)C)cc1` [Example 106] gave an Emax of under 5% and a DC50 of over 1 µM.

In the case of `Cc1ncsc1-c1ccc([C@H](C)NC(=O)[C@@H]2C[C@@H](O)CN2C(=O)[C@@H](NC(=O)c2cc3ccc(O[C@H]4C[C@@H](NC(=O)C[C@@H]5N=C(c6ccc(Cl)cc6)c6c(sc(C)c6C)-n6c(C)nnc65)C4)cc3o2)C(C)(C)C)cc1` [Example 212], the Emax is reported as 95% and the DC50 is reported as under 0.01 µM.

`Cc1ncsc1-c1ccc(CNC(=O)[C@@H]2C[C@@H](O)CN2C(=O)[C@@H](NC(=O)COCCO[C@H]2C[C@H](NC(=O)C[C@@H]3N=C(c4ccc(Cl)cc4)c4c(sc(C)c4C)-n4c(C)nnc43)C2)C(C)(C)C)cc1` [Example 137] gave an Emax of 86.9% and a DC50 of 0.1 to 1 µM.

With `Cc1ncsc1-c1ccc(CNC(=O)[C@@H]2C[C@@H](O)CN2C(=O)[C@@H](NC(=O)COc2ccccc2C(=O)N2CC[C@H](NC(=O)C[C@@H]3N=C(c4ccc(Cl)cc4)c4c(sc(C)c4C)-n4c(C)nnc43)C2)C(C)(C)C)cc1` [Example 87] the Emax was 96.4% and the DC50 was 0.01 to 0.1 µM.

With `Cc1ncsc1-c1ccc([C@H](C)NC(=O)[C@@H]2C[C@@H](O)CN2C(=O)[C@@H](NC(=O)c2cc3ccc(O[C@H](C)CNC(=O)C[C@@H]4N=C(c5ccc(Cl)cc5)c5c(sc(C)c5C)-n5c(C)nnc54)cc3o2)C(C)(C)C)cc1` [Example 211, (2S,4R)-1-[(2S)-2-[(6-{[(2R)-1-{2-[(9S)-7-(4-chlorophenyl)-4,5,13-trimethyl-3-thia-1,8,11,12-tetraazatricyclo[8.3.0.0^2,^6]trideca-2(6),4,7,10,12-pentaen-9-yl]acetamido}propan-2-yl]oxy}-1-benzofuran-2-yl)formamido]-3,3-dimethylbutanoyl]-4-hydroxy-N-[(1S)-1-[4-(4-methyl-1,3-thiazol-5-yl)phenyl]ethyl]pyrrolidine-2-carboxamide] the Emax was 99% and the DC50 was under 0.01 µM.

With `Cc1ncsc1-c1ccc([C@H](C)NC(=O)[C@@H]2C[C@@H](O)CN2C(=O)[C@@H](NC(=O)COC/C=C\COCCNC(=O)C[C@@H]2N=C(c3ccc(Cl)cc3)c3c(sc(C)c3C)-n3c(C)nnc32)C(C)(C)C)cc1` [Example 146, (2S,4R)-1-[(2S)-2-(2-{[(2Z)-4-(2-{2-[(9S)-7-(4-chlorophenyl)-4,5,13-trimethyl-3-thia-1,8,11,12-tetraazatricyclo[8.3.0.0^2,^6]trideca-2(6),4,7,10,12-pentaen-9-yl]acetamido}ethoxy)but-2-en-1-yl]oxy}acetamido)-3,3-dimethylbutanoyl]-4-hydroxy-N-[(1S)-1-[4-(4-methyl-1,3-thiazol-5-yl)phenyl]ethyl]pyrrolidine-2-carboxamide] the Emax was 100% and the DC50 was under 0.01 µM.

`Cc1ncsc1-c1ccc(CNC(=O)[C@@H]2C[C@@H](O)CN2C(=O)[C@@H](NC(=O)COCCCCNC(=O)C[C@@H]2N=C(c3ccc(Cl)cc3)c3c(sc(C)c3C)-n3c(C)nnc32)C(C)(C)C)cc1` [Example 45, (2S,4R)-1-[(2S)-2-[2-(4-{2-[(9S)-7-(4-chlorophenyl)-4,5,13-trimethyl-3-thia-1,8,11,12-tetraazatricyclo[8.3.0.0^2,^6]trideca-2(6),4,7,10,12-pentaen-9-yl]acetamido}butoxy)acetamido]-3,3-dimethylbutanoyl]-4-hydroxy-N-{[4-(4-methyl-1,3-thiazol-5-yl)phenyl]methyl}pyrrolidine-2-carboxamide] showed an Emax of 100% and a DC50 of 0.1 to 1 µM.

`Cc1ncoc1-c1ccc([C@H](C)NC(=O)[C@@H]2C[C@@H](O)CN2C(=O)[C@@H](C(C)C)n2cc(-c3ccnc(O[C@H]4C[C@@H](NC(=O)C[C@@H]5N=C(c6ccc(Cl)cc6)c6c(sc(C)c6C)-n6c(C)nnc65)C4)c3)cn2)cc1` [Example 276] showed an Emax of 36% and a DC50 of over 1 µM.

Molecule `Cc1ncoc1-c1ccc(CNC(=O)[C@@H]2C[C@@H](O)CN2C(=O)[C@@H](NC(=O)COCCCOCCNC(=O)C[C@@H]2N=C(c3ccc(Cl)cc3)c3c(sc(C)c3C)-n3c(C)nnc32)C(C)(C)C)cc1` [Example 74] has an Emax of 97% and a DC50 of 0.01 to 0.1 µM.

`Cc1ncsc1-c1ccc(CNC(=O)[C@@H]2C[C@@H](O)CN2C(=O)[C@@H](NC(=O)COCCCOCCCOc2ccc([C@H](C)NC(=O)C[C@@H]3N=C(c4ccc(Cl)cc4)c4c(sc(C)c4C)-n4c(C)nnc43)cc2)C(C)(C)C)cc1` [Example 25, (2S,4R)-1-[(2S)-2-{2-[3-(3-{4-[(1S)-1-{2-[(9S)-7-(4-chlorophenyl)-4,5,13-trimethyl-3-thia-1,8,11,12-tetraazatricyclo[8.3.0.0^2,^6]trideca-2(6),4,7,10,12-pentaen-9-yl]acetamido}ethyl]phenoxy}propoxy)propoxy]acetamido}-3,3-dimethylbutanoyl]-4-hydroxy-N-{[4-(4-methyl-1,3-thiazol-5-yl)phenyl]methyl}pyrrolidine-2-carboxamide] was tested, and the Emax was 100% and the DC50 was 0.01 to 0.1 µM.

In the case of `CCc1ccc(C2=N[C@@H](CC(=O)Nc3ccc(OCCCOCCCOCC(=O)N[C@H](C(=O)N4C[C@H](O)C[C@H]4C(=O)NCc4ccc(-c5scnc5C)cc4)C(C)(C)C)cc3)c3nnc(C)n3-c3sc(C)c(C)c32)cc1` [Example 64, (2S,4R)-1-[(2S)-2-(2-{3-[3-(4-{2-[(9S)-7-(4-ethylphenyl)-4,5,13-trimethyl-3-thia-1,8,11,12-tetraazatricyclo[8.3.0.0^2,^6]trideca-2(6),4,7,10,12-pentaen-9-yl]acetamido}phenoxy)propoxy]propoxy}acetamido)-3,3-dimethylbutanoyl]-4-hydroxy-N-{[4-(4-methyl-1,3-thiazol-5-yl)phenyl]methyl}pyrrolidine-2-carboxamide], the Emax is reported as 96.5% and the DC50 is reported as 0.01 to 0.1 µM.

For `Cc1ncsc1-c1ccc(CNC(=O)[C@@H]2C[C@@H](O)CN2C(=O)[C@@H](NC(=O)COc2ccc(S(=O)(=O)CCNC(=O)C[C@@H]3N=C(c4ccc(Cl)cc4)c4c(sc(C)c4C)-n4c(C)nnc43)cc2)C(C)(C)C)cc1` [Example 113], the Emax was 88.5% and the DC50 was 0.01 to 0.1 µM.

With `Cc1ncsc1-c1ccc(CNC(=O)[C@@H]2C[C@@H](O)CN2C(=O)[C@H](c2cc(OCCN3CC[C@H](NC(=O)C[C@@H]4N=C(c5ccc(Cl)cc5)c5c(sc(C)c5C)-n5c(C)nnc54)C3)no2)C(C)C)cc1` [Example 309] the Emax was 18% and the DC50 was over 1 µM.

Molecule `Cc1ncsc1-c1ccc([C@H](C)NC(=O)[C@@H]2C[C@@H](O)CN2C(=O)C(C(C)C)n2cc(-c3cccc(OCCNC(=O)C[C@@H]4N=C(c5ccc(Cl)cc5)c5c(sc(C)c5C)-n5c(C)nnc54)c3)cn2)cc1` (stereo partly drawn) [Example 222] has an Emax of 100% and a DC50 of under 0.01 µM.

Molecule `Cc1ncsc1-c1ccc(CNC(=O)[C@@H]2C[C@@H](O)CN2C(=O)[C@@H](NC(=O)c2cn3ccc(OCCCNC(=O)C[C@@H]4N=C(c5ccc(Cl)cc5)c5c(sc(C)c5C)-n5c(C)nnc54)cc3n2)C(C)(C)C)cc1` [Example 99] has an Emax of 67% and a DC50 of 0.1 to 1 µM.

Molecule `Cc1ncsc1-c1ccc(CNC(=O)[C@@H]2C[C@@H](O)CN2C(=O)[C@@H](NC(=O)COCCOCCNC(=O)C[C@@H]2N=C(c3ccc(Cl)cc3)c3c(sc(C)c3C)-n3c(C)nnc32)C(C)(C)C)cc1` [Example 41, (2S,4R)-1-[(2S)-2-{2-[2-(2-{2-[(9S)-7-(4-chlorophenyl)-4,5,13-trimethyl-3-thia-1,8,11,12-tetraazatricyclo[8.3.0.0^2,^6]trideca-2(6),4,7,10,12-pentaen-9-yl]acetamido}ethoxy)ethoxy]acetamido}-3,3-dimethylbutanoyl]-4-hydroxy-N-{[4-(4-methyl-1,3-thiazol-5-yl)phenyl]methyl}pyrrolidine-2-carboxamide] has an Emax of 94% and a DC50 of 0.1 to 1 µM.

In the case of `Cc1ncsc1-c1ccc(CNC(=O)[C@@H]2C[C@@H](O)CN2C(=O)[C@@H](c2cc(OCCC(F)(F)CCNC(=O)C[C@@H]3N=C(c4ccc(Cl)cc4)c4c(sc(C)c4C)-n4c(C)nnc43)no2)C(C)C)cc1` [Example 297, (2S,4R)-1-[(2R)-2-{3-[(5-{2-[(9S)-7-(4-chlorophenyl)-4,5,13-trimethyl-3-thia-1,8,11,12-tetraazatricyclo[8.3.0.0^2,^6]trideca-2(6),4,7,10,12-pentaen-9-yl]acetamido}-3,3-difluoropentyl)oxy]-1,2-oxazol-5-yl}-3-methylbutanoyl]-4-hydroxy-N-{[4-(4-methyl-1,3-thiazol-5-yl)phenyl]methyl}pyrrolidine-2-carboxamide], the Emax is reported as 97% and the DC50 is reported as under 0.01 µM.

Work on `Cc1ncsc1-c1ccc(CNC(=O)[C@@H]2C[C@@H](O)CN2C(=O)[C@H](c2cc(OCCO[C@H]3C[C@@H](NC(=O)C[C@@H]4N=C(c5ccc(Cl)cc5)c5c(sc(C)c5C)-n5c(C)nnc54)C3)no2)C(C)C)cc1` [Example 316] yielded an Emax of 71.4% and a DC50 of 0.01 to 0.1 µM.
